Experimental data from patent publication US9862688B2, “Hydrophobically tagged janus kinase inhibitors and uses thereof” (Dana-Farber Cancer Institute, Inc., priority 2014, dated 2018).

What was measured:
[1] = test system: CMK (an Acute Megakaryoblastic Leukemia (AMKL) cell line); assay: Cancer cell line proliferation analysis (CellTiter-Glo), CMK; type: cell-based; conditions: Homo sapiens; CMK cells, 72 hours at 37° C., cell viability; read-out: Cancer cell lines IC50 (nM) CMK
Experimental: (§1) Cell Proliferation Analysis
(§2) CellTiter-Glo® Luminescent cell viability assay (Promega) was used to assess cell survival following treatment with the compounds described herein. Cells were seeded into 384 well plates with the EL406 Combination Washer Dispenser (BioTek Instruments, Inc.), and the compounds were injected into the cells culture media with the JANUS Automated Workstation (PerkinElmer Inc.). Cells were treated with a series diluted inhibitors (20 to 0.04 μM) for 72 hours at 37° C. Luminescent measurement is performed using the 2104 Envision® Multilabel Reader (PerkinElmer Inc.). The cell lines employed include Ba/F3 (a murine interleukin-3 dependent pro-B cell line), NKL (a Natural Killer Cell Lymphoma (NKCL) cell line), CMK (an Acute Megakaryoblastic Leukemia (AMKL) cell line).

[2] = test system: NKL (a Natural Killer Cell Lymphoma (NKCL) cell line); assay: Cancer cell line proliferation analysis (CellTiter-Glo), NKL; type: cell-based; conditions: NKL cells, 72 hours at 37° C., cell viability, read-out: Cancer cell lines IC50 (nM) NKL
Experimental: as §1, §2

[3] = test system: Ba/F3 TYK2; assay: Ba/F3 cell proliferation analysis (CellTiter-Glo), TYK2; type: cell-based, murine; conditions: Mus musculus, BaF3; Ba/F3 cells, 72 hours at 37° C., cell viability
Experimental: as §1, §2

[4] = molecular target: JAK3 (Homo sapiens (Human), UniProt P52333); assay: INVITROGEN Select Screening in vitro kinase activity assay; type: biochemical; conditions: enzymatic
Sequence of JAK3 (P52333 whole entry): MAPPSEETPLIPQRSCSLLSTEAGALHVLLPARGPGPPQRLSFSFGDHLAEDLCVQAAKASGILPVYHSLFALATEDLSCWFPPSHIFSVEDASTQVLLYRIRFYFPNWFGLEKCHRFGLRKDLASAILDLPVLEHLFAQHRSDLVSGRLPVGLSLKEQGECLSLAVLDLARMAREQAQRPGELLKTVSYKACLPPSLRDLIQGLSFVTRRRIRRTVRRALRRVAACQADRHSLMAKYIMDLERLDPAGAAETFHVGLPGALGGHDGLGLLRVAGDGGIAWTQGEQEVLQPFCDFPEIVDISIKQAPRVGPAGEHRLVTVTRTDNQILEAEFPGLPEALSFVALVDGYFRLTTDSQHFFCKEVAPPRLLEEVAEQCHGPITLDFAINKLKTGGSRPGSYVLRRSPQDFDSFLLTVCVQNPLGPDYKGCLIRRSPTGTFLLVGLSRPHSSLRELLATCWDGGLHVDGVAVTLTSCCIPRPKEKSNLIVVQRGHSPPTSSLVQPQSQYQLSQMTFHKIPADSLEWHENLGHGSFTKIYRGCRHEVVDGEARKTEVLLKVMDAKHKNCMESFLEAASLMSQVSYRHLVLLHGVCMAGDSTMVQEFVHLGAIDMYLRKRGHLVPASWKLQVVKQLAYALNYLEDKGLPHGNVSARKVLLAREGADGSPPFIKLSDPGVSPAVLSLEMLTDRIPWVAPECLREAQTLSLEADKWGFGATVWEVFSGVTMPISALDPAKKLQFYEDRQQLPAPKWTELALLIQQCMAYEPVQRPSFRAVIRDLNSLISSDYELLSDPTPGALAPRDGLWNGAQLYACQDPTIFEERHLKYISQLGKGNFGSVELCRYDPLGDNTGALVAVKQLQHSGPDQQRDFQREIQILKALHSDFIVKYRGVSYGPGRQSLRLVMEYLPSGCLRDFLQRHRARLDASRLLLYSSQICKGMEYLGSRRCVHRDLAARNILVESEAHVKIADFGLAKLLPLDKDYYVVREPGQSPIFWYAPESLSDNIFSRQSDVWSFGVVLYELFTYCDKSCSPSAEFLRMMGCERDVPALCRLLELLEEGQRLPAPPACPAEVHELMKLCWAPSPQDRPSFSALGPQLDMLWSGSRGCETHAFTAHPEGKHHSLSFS
Excerpt: The in vitro activity of the compounds described herein in inhibiting JAK3 and other kinases were obtained using an INVITROGEN Select Screening assay as known in the art.

[5] = test system: Ba/F3 JAK3; assay: Ba/F3 cell proliferation analysis (CellTiter-Glo), JAK3; type: cell-based, murine; conditions: Ba/F3 cells, 72 hours at 37° C., cell viability
Experimental: as §1, §2

[6] = test system: Ba/F3 JAK1; assay: Ba/F3 cell proliferation analysis (CellTiter-Glo), JAK1; type: cell-based, murine; conditions: Mus musculus, BaF3; Ba/F3 cells, 72 hours at 37° C., cell viability
Experimental: as §1, §2

[7] = test system: Ba/F3 ABL; assay: Ba/F3 cell proliferation analysis (CellTiter-Glo), ABL; type: cell-based, murine; conditions: Mus musculus, Ba/F3 cells, 72 hours at 37° C., cell viability
Experimental: as §1
as §2, with “Luminescent measurement is performed using the 2104 Envision® Multilabel Reader (PerkinElmer Inc.).” left out

[8] = test system: Ba/F3 JAK2; assay: Ba/F3 cell proliferation analysis (CellTiter-Glo), JAK2; type: cell-based, murine; conditions: Mus musculus, BaF3; Ba/F3 cells, 72 hours at 37° C., cell viability
Experimental: as §1
as §2, with “Luminescent measurement is performed using the 2104 Envision® Multilabel Reader (PerkinElmer Inc.).” left out

Compound | IC50 [1] | IC50 [2] | IC50 [3] | IC50 [4] | IC50 [5] | IC50 ([5]; listed as compound 2) | IC50 [6] | IC50 ([7]; BaF3) | IC50 [8] | IC50 ([5]; Mus musculus, BaF3, 72 h) | IC50 ([7]; BaF3, 72 h, heading: Ba/F3 IC50 ABL)
C=CC(=O)Nc1cccc(CNc2nc(Nc3ccc(N4CCN(CCCNC(=O)CC5[C@H]6C[C@@H]7C[C@@H](C[C@H]5C7)C6)CC4)cc3OC)ncc2Cl)c1 (stereo partly shown) [Compound 2] | 273 nM | 193 nM | 1820 nM | 45 nM | 382 nM | 45 nM | – | – | – | – | –
C=CC(=O)Nc1cccc(CNc2nc(Nc3ccc(N4CCN(CCCNC(=O)CC5[C@H]6C[C@@H]7C[C@@H](C[C@H]5C7)C6)CC4)cc3)ncc2Cl)c1 (stereo partly shown) [Compound 3] | 490 nM | – | 542 nM | 12.8 nM | – | – | 1120 nM | 2260 nM | 1220 nM | 72.7 nM | –
C=CC(=O)Nc1cccc(CNc2nc(Nc3ccc(N4CCN(CCCCNC(=O)CC5[C@H]6C[C@@H]7C[C@@H](C[C@H]5C7)C6)CC4)cc3)ncc2Cl)c1 (stereo partly shown) [Compound 4] | 38 nM | – | 372 nM | 7.95 nM | – | – | 252 nM | 623 nM | – | 64.8 nM | –
C=CC(=O)Nc1cccc(CNc2nc(Nc3cnn(CCN4CCN(C(=O)CC5[C@H]6C[C@@H]7C[C@@H](C[C@H]5C7)C6)CC4)c3)ncc2Cl)c1 (stereo partly shown) [Compound 5] | – | – | 676 nM | 4.9 nM | – | – | 1110 nM | – | – | 94 nM | –
C=CC(=O)Nc1cccc(CNc2nc(Nc3cnn(C4CCN(C(=O)CC5[C@H]6C[C@@H]7C[C@@H](C[C@H]5C7)C6)CC4)c3)ncc2Cl)c1 (stereo partly shown) [Compound 6] | – | – | – | 5.9 nM | – | – | 2080 nM | – | 3180 nM | 38 nM | 3860 nM
C=CC(=O)Nc1cccc(CNc2nc(Nc3cnn(C4CCN(CCNC(=O)CC5[C@H]6C[C@@H]7C[C@@H](C[C@H]5C7)C6)CC4)c3)ncc2Cl)c1 (stereo partly shown) [Compound 7] | – | – | 794 nM | 6.8 nM | – | – | 954 nM | 2280 nM | 1440 nM | 105 nM | –
